In patent US20240209028A1, “CNP COMPOUNDS” (priority 2022, published 2024):
Converted amounts (≈) assume the structure as drawn. Starred links: 1 amine or outer side, 2 acyl side, 3 side chain; linkers in the order of their positions; H or OH if unused. Positions of bridges follow the written chain, without caps; N, C: chain ends. Residues, ends and D or L forms follow the SMILES beside them. *: point of attachment. C18 diacid = O=C(O)CCCCCCCCCCCCCCCCC(=O)*; γGlu = O=C(O)[C@H](CCC(=O)[*:2])N[*:1]; AEEA = NCCOCCOCC(=O)O

Experiments:
[1] = Solubility of CNP compounds at pH 4.0 and pH 6.5; format: physicochemical; details: 8 mM sodium phosphate, 23 mg/mL glycerol, pH 6.5, room temperature; read-out: Solubility at pH 6.5
Experimental: In order to assess the suitability of CNP compounds for a soluble liquid formulation, the solubility of CNP compounds in pharmaceutically relevant buffers were measured. Solubility at two different pH-levels (pH 4.0 and pH 6.5) was examined as pH is expected to affect solubility.
Preparation of pH 4.0 samples: The pH 4.0 samples of the CNP compounds were prepared by mixing freeze dried peptide with a pH 4.0 5 mM sodium acetate, 250 mM glycerol buffer at room temperature to a nominal concentration of at least 4000-5000 nmol/mL. The pH of the samples was measured and adjusted to pH 4.0 and the samples were allowed to equilibrate at room temperature until next day if not fully dissolved.
Preparation of pH 6.5 samples: The pH 6.5 samples of the CNP compounds were prepared by dissolving the freeze dried peptide in water. While stirring, a part of the peptide solution was transferred to a buffer consisting of 41 mM sodium phosphate and 118 mg/mL glycerol, pH 7.5-8.0, followed by addition of diluted sodium hydroxide followed by another part of the peptide solution and further addition of diluted sodium hydroxide. This procedure was repeated until all of the peptide solution had been added where a nominal concentration of at least 4000-5000 nmol/mL had been reached and the buffer composition was 8 mM sodium phosphate, 23 mg/mL glycerol. The pH of the samples were measured and adjusted to pH 6.5 and the samples were allowed to equilibrate at room temperature until next day if not fully dissolved.
Procedure: Samples at pH 4.0 were prepared as described above and the compound concentration in the supernatant was determined using CAD (Method F, CAD02).
Samples at pH 6.5 were prepared as described above and peptide concentration in the supernatant was determined by CAD (Method F, CAD02).

[2] = target: T1, human natriuretic peptide receptor 2 (hNPR2) (Homo sapiens, UniProt P20594); experiment: In vitro hNPR2 activity assay (cGMP GloSensor reporter, HEK293); format: cell-based; details: potency relative to CNP22 (0065)
T1 construct: expressed in transfected cells; host or cells: HEK293 (ATCC CRL-1573), clone 35, co-transfected with pGloSensor-42F
T1 sequence (P20594 23-1047): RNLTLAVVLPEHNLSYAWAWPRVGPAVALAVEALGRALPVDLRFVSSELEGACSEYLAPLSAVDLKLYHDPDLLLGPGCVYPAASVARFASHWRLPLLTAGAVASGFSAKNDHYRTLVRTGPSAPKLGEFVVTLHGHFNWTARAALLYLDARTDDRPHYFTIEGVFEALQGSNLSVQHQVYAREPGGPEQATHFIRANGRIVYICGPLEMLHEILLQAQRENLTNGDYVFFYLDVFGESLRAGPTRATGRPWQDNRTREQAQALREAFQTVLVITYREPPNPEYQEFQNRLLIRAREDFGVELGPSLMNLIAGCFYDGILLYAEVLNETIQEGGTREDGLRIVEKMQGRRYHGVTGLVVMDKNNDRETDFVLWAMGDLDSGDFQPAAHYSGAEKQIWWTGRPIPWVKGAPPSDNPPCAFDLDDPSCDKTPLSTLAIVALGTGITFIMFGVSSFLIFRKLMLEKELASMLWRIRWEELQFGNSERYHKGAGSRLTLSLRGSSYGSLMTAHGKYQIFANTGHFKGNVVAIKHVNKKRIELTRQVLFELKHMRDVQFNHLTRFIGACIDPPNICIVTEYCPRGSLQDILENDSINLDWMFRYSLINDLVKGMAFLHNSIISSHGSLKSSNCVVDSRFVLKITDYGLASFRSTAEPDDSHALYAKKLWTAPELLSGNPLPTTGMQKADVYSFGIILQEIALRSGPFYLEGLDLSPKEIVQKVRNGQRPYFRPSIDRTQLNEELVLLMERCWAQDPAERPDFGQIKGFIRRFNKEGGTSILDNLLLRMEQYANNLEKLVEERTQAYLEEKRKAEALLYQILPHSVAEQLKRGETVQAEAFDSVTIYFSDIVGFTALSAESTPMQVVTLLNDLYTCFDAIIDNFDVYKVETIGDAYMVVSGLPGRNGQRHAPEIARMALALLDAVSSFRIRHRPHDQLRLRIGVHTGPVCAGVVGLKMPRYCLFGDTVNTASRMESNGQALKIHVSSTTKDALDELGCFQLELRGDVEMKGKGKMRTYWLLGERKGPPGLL
In short: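 Potency is the EC50 from a four-parameter logistic fit, also expressed relative to the in-plate CNP22 control (×100), with at least two replicates. Compounds (ten concentrations, […], HSA-free diluent with 1% OVA, 0.01% Tween20) were incubated 30 min at 37 °C on HEK293 cells co-expressing hNPR2 and a GloSensor cGMP luciferase. Luminescence detected with Bright-Glo.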

For `CC[C@H](C)[C@@H]1NC(=O)[C@H](CCCNC(=N)N)NC(=O)[C@H](CC(=O)O)NC(=O)[C@H](CC(C)C)NC(=O)[C@@H]2CCCN2C(=O)[C@H](CC(C)C)NC(=O)CNC(=O)[C@H](Cc2ccccc2)NC(=O)[C@@H](NC(=O)CNC(=O)[C@H](CO)NC(=O)[C@H](CO)NC(=O)[C@@H](NC(=O)CNC(=O)[C@@H](NC(=O)[C@H](CCCCN)NC(=O)[C@H](CCC(N)=O)NC(=O)[C@H](C)NC(=O)CNC(=O)[C@H](Cc2c[nH]cn2)NC(=O)[C@H](Cc2ccc(O)cc2)NC(=O)COCCOCCNC(=O)COCCOCCNC(=O)CC[C@H](NC(=O)CCCCCCCCCCCCCCCCC(=O)O)C(=O)O)[C@@H](C)O)C(C)C)CSSC[C@@H](C(=O)O)NC(=O)CNC(=O)[C@H](CC(C)C)NC(=O)CNC(=O)[C@H](CO)NC(=O)[C@H](CC(C)C)NC(=O)[C@H](CO)NC(=O)CNC1=O` [compound 1303] ({C18 diacid-γGlu-AEEA-AEEA}-YHGAQKTGVSSGCFGLPLDRIGSLSGLGC-OH; disulfide 13-29), the solubility [1] was 4.84 mM (≈ 17.4 mg/mL) and the “hNPR2 0% HSA. [EC50% rel CNP]” value [2] was 25.5%.

In the case of `CC[C@H](C)[C@@H]1NC(=O)[C@H](CCCNC(=N)N)NC(=O)[C@H](CC(=O)O)NC(=O)[C@H](CC(C)C)NC(=O)[C@@H]2CCCN2C(=O)[C@H](CC(C)C)NC(=O)CNC(=O)[C@H](Cc2ccccc2)NC(=O)[C@@H](NC(=O)CNC(=O)[C@H](CO)NC(=O)[C@H](CO)NC(=O)[C@H](CC(C)C)NC(=O)CNC(=O)[C@@H](NC(=O)[C@H](Cc2c[nH]cn2)NC(=O)[C@H](CCC(N)=O)NC(=O)[C@H](C)NC(=O)CNC(=O)[C@H](Cc2c[nH]cn2)NC(=O)[C@H](Cc2ccc(O)cc2)NC(=O)COCCOCCNC(=O)COCCOCCNC(=O)CC[C@H](NC(=O)CCCCCCCCCCCCCCCCC(=O)O)C(=O)O)[C@@H](C)O)CSSC[C@@H](C(=O)O)NC(=O)CNC(=O)[C@H](CC(C)C)NC(=O)CNC(=O)[C@H](CO)NC(=O)[C@H](CC(C)C)NC(=O)[C@H](CO)NC(=O)CNC1=O` [compound 1304] ({C18 diacid-γGlu-AEEA-AEEA}-YHGAQHTGLSSGCFGLPLDRIGSLSGLGC-OH; disulfide 13-29), the solubility [1] is reported as 6.66 mM (≈ 24.1 mg/mL) and the “hNPR2 0% HSA. [EC50% rel CNP]” value [2] is reported as 20.7%.

With `CC[C@H](C)[C@@H]1NC(=O)[C@H](CCCNC(=N)N)NC(=O)[C@H](CC(=O)O)NC(=O)[C@H](CC(C)C)NC(=O)[C@@H]2CCCN2C(=O)[C@H](CC(C)C)NC(=O)CNC(=O)[C@H](Cc2ccccc2)NC(=O)[C@@H](NC(=O)CNC(=O)[C@H](CO)NC(=O)[C@H](CO)NC(=O)[C@H](CC(C)C)NC(=O)CNC(=O)[C@H](CCCCN)NC(=O)[C@H](CCCCN)NC(=O)[C@H](CCC(N)=O)NC(=O)[C@H](C)NC(=O)CNC(=O)[C@H](Cc2c[nH]cn2)NC(=O)[C@H](CCC(=O)O)NC(=O)COCCOCCNC(=O)COCCOCCNC(=O)CC[C@H](NC(=O)CCCCCCCCCCCCCCCCC(=O)O)C(=O)O)CSSC[C@@H](C(=O)O)NC(=O)CNC(=O)[C@H](CC(C)C)NC(=O)CNC(=O)[C@H](CO)NC(=O)[C@H](CC(C)C)NC(=O)[C@H](CO)NC(=O)CNC1=O` [compound 1310] ({C18 diacid-γGlu-AEEA-AEEA}-EHGAQKKGLSSGCFGLPLDRIGSLSGLGC-OH; disulfide 13-29) the solubility [1] was 7.61 mM (≈ 27.4 mg/mL) and the “hNPR2 0% HSA. [EC50% rel CNP]” value [2] was 10.4%.
